Assay results published in patent US9943504B2, “Arginine methyltransferase inhibitors and uses thereof” (Epizyme, Inc., priority 2013, dated 2018).

Biological target: T1, human PRMT1 (Homo sapiens, UniProt Q99873)
T1 construct: GST-tagged PRMT1; made in house; host or cells: High Five insect cells (baculovirus)
Assay: PRMT1 Biochemical Assay
Conditions: biochemical evaluation, peptide substrate
Text: S-adenosylmethionine (SAM), S-adenosylhomocysteine (SAH), bicine, Tween20, dimethylsulfoxide (DMSO), bovine skin gelatin (BSG), and Tris(2-carboxyethyl)phosphine hydrochloride solution (TCEP) were purchased from Sigma-Aldrich at the highest level of purity possible. ^3H-SAM was purchase from American Radiolabeled Chemicals with a specific activity of 80 Ci/mmol. 384-well streptavidin Flashplates were purchased from PerkinElmer.
Peptide representative of human histone H4 residues 36-50 was synthesized with an N-terminal linker-affinity tag motif and a C-terminal amide cap by 21st Century Biochemicals. The peptide was purified by high-performance liquid chromatography (HPLC) to greater than 95% purity and confirmed by liquid chromatography mass spectrometry (LC-MS). The sequence was Biot-Ahx-[…]-amide (SEQ ID NO.: 1). […]
The assays were all performed in a buffer consisting of 20 mM Bicine (pH=7.6), 1 mM TCEP, 0.005% BSG, and 0.002% Tween 20, prepared on the day of use. […] The plates were then read in a PerkinElmer TopCount plate reader to measure the quantity of ^3H-labeled peptide bound to the Flashplate surface, measured as disintegrations per minute (dpm) or alternatively, referred to as counts per minute (cpm). […]

T1 sequence (Q99873 with tags, fused parts or gaps): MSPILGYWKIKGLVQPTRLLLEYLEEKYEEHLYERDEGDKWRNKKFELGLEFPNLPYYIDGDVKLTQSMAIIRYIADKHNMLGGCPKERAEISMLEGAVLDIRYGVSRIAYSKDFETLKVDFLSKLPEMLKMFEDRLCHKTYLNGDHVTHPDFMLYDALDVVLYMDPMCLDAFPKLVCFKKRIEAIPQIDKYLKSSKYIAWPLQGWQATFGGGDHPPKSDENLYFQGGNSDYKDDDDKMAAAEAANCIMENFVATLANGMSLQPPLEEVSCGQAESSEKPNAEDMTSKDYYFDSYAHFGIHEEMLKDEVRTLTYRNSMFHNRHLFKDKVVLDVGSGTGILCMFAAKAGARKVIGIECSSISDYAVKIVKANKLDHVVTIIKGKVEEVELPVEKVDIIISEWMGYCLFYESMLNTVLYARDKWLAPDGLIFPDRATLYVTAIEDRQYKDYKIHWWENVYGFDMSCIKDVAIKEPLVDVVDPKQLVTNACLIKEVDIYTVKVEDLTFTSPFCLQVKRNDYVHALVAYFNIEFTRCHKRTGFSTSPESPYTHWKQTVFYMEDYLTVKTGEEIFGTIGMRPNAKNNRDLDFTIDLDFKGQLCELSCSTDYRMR

`CN(CCN)Cc1n[nH]c2cccc(OCc3ccccc3)c12` [Compound 1] showed an IC50 of no more than 100 nM.
